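Results reflect a 48-hour exposure of cells in 96-well plates to compound at five concentrations. GI50: concentration for 50% inhibition of growth.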 Calls of active or inactive are those of the source. No stated cut-off is given here; in the data, active = GI50 up to about 1.1 µM and inactive = higher.
Key:
Assay in all cases: NCI anticancer screen, dose series, 48 h
BT-549 = tested on: BT-549
MCF7 = tested on: MCF7
U-251 = tested on: U-251
UO-31 = tested on: UO-31
MDA-MB-435 = tested on: MDA-MB-435
RPMI-8226 = tested on: RPMI-8226
KM12 = tested on: KM12
DU-145 = tested on: DU-145
HT-29 = tested on: HT-29
NCI/ADR-RES = tested on: NCI/ADR-RES
OVCAR-4 = tested on: OVCAR-4
T47D = tested on: T47D
SN12C = tested on: SN12C
CAKI-1 = tested on: CAKI-1
RXF 393 = tested on: RXF 393
SW-620 = tested on: SW-620
786-0 = tested on: 786-0
SF-268 = tested on: SF-268
SK-OV-3 = tested on: SK-OV-3
HL-60 = tested on: HL-60

Measured: GI50

CCOC(=O)c1cn(-c2ccc(Cl)cc2)c(=O)n2c1nc1ccccc12
inactive: BT-549 > 100 µM | MCF7 > 100 µM | U-251 > 100 µM | UO-31 > 100 µM | MDA-MB-435 > 100 µM | RPMI-8226 > 100 µM | KM12 > 100 µM | DU-145 > 100 µM | HT-29 88.3 µM | NCI/ADR-RES > 100 µM | OVCAR-4 > 100 µM | T47D > 100 µM | SN12C > 100 µM | CAKI-1 > 100 µM | RXF 393 > 100 µM | SW-620 > 100 µM | 786-0 > 100 µM

CSc1ccc(C=C2N=C(c3ccccc3)N(c3cc(C(=O)c4ccccc4)ccc3N3C(=O)/C(=C/c4ccc(SC)cc4)N=C3c3ccccc3)C2=O)cc1
inactive: BT-549 45.6 µM | MCF7 > 100 µM | U-251 27 µM | UO-31 48.4 µM | SF-268 53.2 µM | MDA-MB-435 31.8 µM | SK-OV-3 > 100 µM | RPMI-8226 25.4 µM | KM12 40 µM | DU-145 49.9 µM | HT-29 81.3 µM | NCI/ADR-RES 46 µM | OVCAR-4 40 µM | T47D 34.5 µM | SN12C 76.6 µM | CAKI-1 56.1 µM | SW-620 > 100 µM | HL-60 8.04 µM | 786-0 69.3 µM

CCCCCCN(CCCCCC)CCC(=O)c1ccc2cc(Br)c3ccccc3c2c1
inactive: BT-549 20.3 µM | MCF7 20.2 µM | U-251 36.2 µM | UO-31 26.7 µM | SF-268 28.1 µM | MDA-MB-435 26.1 µM | SK-OV-3 39.1 µM | RPMI-8226 9.31 µM | KM12 11.5 µM | DU-145 52.2 µM | HT-29 66.1 µM | NCI/ADR-RES 48.5 µM | T47D 23.3 µM | SN12C 34 µM | CAKI-1 66.7 µM | RXF 393 20.7 µM | SW-620 43.7 µM | HL-60 10.8 µM | 786-0 24.9 µM

COC(=O)C1(C)CCC(c2ccc(C)cc2)=C(CC(=O)O)C1 (stereo unspecified)
inactive: BT-549 > 100 µM | MCF7 > 100 µM | U-251 > 100 µM | SF-268 > 100 µM | MDA-MB-435 > 100 µM | SK-OV-3 > 100 µM | RPMI-8226 > 100 µM | DU-145 > 100 µM | HT-29 > 100 µM | NCI/ADR-RES > 100 µM | OVCAR-4 > 100 µM | T47D > 100 µM | SN12C > 100 µM | RXF 393 > 100 µM | SW-620 > 100 µM | HL-60 > 100 µM | 786-0 > 100 µM

COc1ccc(/C=C2\c3cc(OC)c(OC)cc3CCN2C(=O)c2ccccc2)cc1OC
inactive: BT-549 27.7 µM | MCF7 43.9 µM | U-251 82.6 µM | UO-31 35.5 µM | SF-268 46.3 µM | MDA-MB-435 21.2 µM | RPMI-8226 29.4 µM | KM12 49.9 µM | DU-145 55 µM | HT-29 30.7 µM | NCI/ADR-RES 23.7 µM | T47D 33.3 µM | SN12C 70.1 µM | CAKI-1 54 µM | RXF 393 35.2 µM | SW-620 34.5 µM | HL-60 23.1 µM | 786-0 34.4 µM

O=C(NNC(=S)Nc1ccccc1)c1cc(-c2ccccc2)nc2ccccc12
inactive: BT-549 21.6 µM | MCF7 21.4 µM | U-251 12.2 µM | UO-31 15.2 µM | SF-268 22.9 µM | MDA-MB-435 16.5 µM | SK-OV-3 26.8 µM | RPMI-8226 6.56 µM | KM12 20.7 µM | DU-145 17 µM | HT-29 28.6 µM | NCI/ADR-RES 17.4 µM | OVCAR-4 17.3 µM | T47D 7.4 µM | SN12C 20.8 µM | CAKI-1 30.1 µM | RXF 393 19 µM | SW-620 18.7 µM | 786-0 15.8 µM

O=C(CCCl)NN=C1NCCCCN1
inactive: BT-549 > 100 µM | MCF7 > 100 µM | U-251 > 100 µM | UO-31 > 100 µM | SF-268 > 100 µM | MDA-MB-435 > 100 µM | SK-OV-3 > 100 µM | RPMI-8226 > 100 µM | KM12 > 100 µM | DU-145 > 100 µM | HT-29 > 100 µM | NCI/ADR-RES > 100 µM | OVCAR-4 > 100 µM | T47D > 100 µM | SN12C > 100 µM | RXF 393 > 100 µM | SW-620 > 100 µM | HL-60 > 100 µM | 786-0 > 100 µM

COC(=O)C1=CC(=O)OC1(OO)c1ccccc1 (stereo unspecified)
inactive: BT-549 > 100 µM | MCF7 > 100 µM | U-251 > 100 µM | UO-31 > 100 µM | MDA-MB-435 > 100 µM | SK-OV-3 > 100 µM | KM12 > 100 µM | DU-145 > 100 µM | HT-29 56.4 µM | NCI/ADR-RES > 100 µM | OVCAR-4 > 100 µM | T47D > 100 µM | SN12C > 100 µM | CAKI-1 38.8 µM | RXF 393 > 100 µM | SW-620 68.1 µM | HL-60 3.18 µM | 786-0 35.6 µM

CC(C)[S+]1C2=C(CC(C)(C)CC2=O)[N-]c2ccccc21 (stereo unspecified)
inactive: BT-549 > 100 µM | MCF7 > 100 µM | U-251 > 100 µM | UO-31 > 100 µM | SF-268 > 100 µM | MDA-MB-435 > 100 µM | SK-OV-3 > 100 µM | RPMI-8226 > 100 µM | KM12 > 100 µM | DU-145 > 100 µM | HT-29 > 100 µM | NCI/ADR-RES > 100 µM | OVCAR-4 > 100 µM | T47D > 100 µM | SN12C > 100 µM | CAKI-1 > 100 µM | RXF 393 > 100 µM | SW-620 > 100 µM | 786-0 > 100 µM

COC(c1ccc(C(C)(C)C)cc1)(c1ccc(C(C)(C)C)cc1)c1ccc(C(C)(C)C)cc1
inactive: BT-549 > 100 µM | MCF7 > 100 µM | U-251 > 100 µM | UO-31 > 100 µM | SF-268 > 100 µM | MDA-MB-435 > 100 µM | RPMI-8226 > 100 µM | KM12 > 100 µM | DU-145 > 100 µM | HT-29 > 100 µM | NCI/ADR-RES > 100 µM | OVCAR-4 > 100 µM | T47D > 100 µM | SN12C > 100 µM | CAKI-1 > 100 µM | SW-620 > 100 µM | HL-60 > 100 µM | 786-0 > 100 µM

CCN(CC)C(=S)SS(=O)(=O)c1ccc(Cl)cc1
inactive: BT-549 34.4 µM | U-251 15.1 µM | UO-31 17.7 µM | SF-268 53 µM | MDA-MB-435 20.5 µM | SK-OV-3 64.3 µM | RPMI-8226 15 µM | KM12 11.7 µM | DU-145 27.3 µM | HT-29 17.8 µM | NCI/ADR-RES 35.4 µM | OVCAR-4 45.5 µM | T47D 46.2 µM | SN12C 20.2 µM | CAKI-1 19.8 µM | RXF 393 17.6 µM | SW-620 17.1 µM | 786-0 29.9 µM

— ChEMBL document CHEMBL1201862, “PubChem BioAssay data set” (2004)
